Laboratory results taken from US6916798B2, “Inhibitors of GSK-3 and uses thereof” (Vertex Pharmaceuticals Incorporated, priority 2001, dated 2005).

Tests used:
Assay type in all cases: biochemical
GSK-3β (AA 1-420) = target: T1, GSK-3β (AA 1-420) (Homo sapiens, UniProt P49841); experiment: Ki determination for the inhibition of GSK-3, standard coupled enzyme system; conditions: 20 μM ATP, 300 μM peptide, 20 nM GSK-3β, 30° C.; read-out: Ki values for GSK-3
T1 construct: GSK-3β (AA 1-420)
Procedure: Final substrate concentrations in the assay were 20 μM ATP (Sigma Chemicals, St Louis, Mo.) and 300 μM peptide (HSSPHQS(PO3H2)EDEEE, American Peptide, Sunnyvale, Calif.). Reactions were carried out at 30° C. and 20 nM GSK-3β. Final concentrations of the components of the coupled enzyme system were 2.5 mM phosphoenolpyruvate, 300 μM NADH, 30 μg/ml pyruvate kinase and 10 μg/ml lactate dehydrogenase.
An assay stock buffer solution was prepared containing all of the reagents listed above with the exception of ATP and the test compound of interest. The assay stock buffer solution (175 μl) was incubated in a 96 well plate with 5 μl of the test compound of interest at final concentrations spanning 0.002 μM to 30 μM at 30 ° C. for 10 min. […] The reaction was initiated by the addition of 20 μl of ATP (final concentration 20 μM). Rates of reaction were obtained using a Molecular Devices Spectramax plate reader (Sunnyvale, Calif.) over 10 min at 30° C. The Ki values were determined from the rate data as a function of inhibitor concentration.

Aurora-2 = target: T2, Aurora-2 (Homo sapiens, UniProt O14965); experiment: Ki determination for the inhibition of Aurora-2, standard coupled enzyme assay; conditions: 70 nM Aurora-2, 800 μM peptide LRRASLG, 30° C.
T2 sequence (O14965 1-403): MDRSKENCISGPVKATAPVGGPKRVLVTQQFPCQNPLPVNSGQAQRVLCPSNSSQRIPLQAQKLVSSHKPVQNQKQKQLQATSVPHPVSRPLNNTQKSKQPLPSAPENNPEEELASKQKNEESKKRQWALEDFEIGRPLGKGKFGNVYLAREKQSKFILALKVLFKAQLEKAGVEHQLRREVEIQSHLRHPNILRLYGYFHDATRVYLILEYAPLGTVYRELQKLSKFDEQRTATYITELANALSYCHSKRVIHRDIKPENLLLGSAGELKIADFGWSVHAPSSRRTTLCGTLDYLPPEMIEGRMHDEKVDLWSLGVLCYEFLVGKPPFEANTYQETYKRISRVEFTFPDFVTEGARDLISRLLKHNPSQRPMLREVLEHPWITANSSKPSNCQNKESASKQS
Procedure: Compounds were screened in the following manner for their ability to inhibit Aurora-2 using a standard coupled enzyme assay (Fox et al. (1998) Protein Sci. 7, 2249).
(§1) To an assay stock buffer solution containing 0.1M HEPES 7.5, 10 mM MgCl2, 1 mM DTT, 25 mM NaCl, 2.5 mM phosphoenolpyruvate, […], 30 mg/ml pyruvate kinase, 10 mg/ml lactate dehydrogenase, 40 mM ATP, and 800 μM peptide (LRRASLG, American Peptide, Sunnyvale, Calif.) was added a DMSO solution of a compound of the present invention to a final concentration of 30 μM. The resulting mixture was incubated at 30° C. for 10 min. The reaction was initiated by the addition of 10 μL of Aurora-2 stock solution to give a final concentration of 70 nM in the assay. The rates of reaction were obtained by monitoring absorbance at 340 nm over a 5 minute read time at 30° C. using a BioRad Ultramark plate reader (Hercules, Calif.). The Ki values were determined from the rate data as a function of inhibitor concentration.

CDK-2/Cyclin A = CDK-2/Cyclin A (Homo sapiens, UniProt P24941); experiment: Inhibition of CDK-2, standard coupled enzyme assay; conditions: 25 nM CDK-2/Cyclin A, 100 μM peptide, 30° C.
Procedure: Compounds were screened in the following manner for their ability to inhibit CDK-2 using a standard coupled enzyme assay (Fox et al (1998) Protein Sci 7, 2249).
as §1, with “[…], […]” for “dehydrogenase, 40”, “and 100” for “and 800”, “peptide ([…],” for “peptide (LRRASLG,”, “of CDK-2/Cyclin A” for “of Aurora-2”, “of 25” for “of 70”, “a 5-minute” for “a 5 minute”

T1 sequence (P49841 whole entry, the tested form may be a part): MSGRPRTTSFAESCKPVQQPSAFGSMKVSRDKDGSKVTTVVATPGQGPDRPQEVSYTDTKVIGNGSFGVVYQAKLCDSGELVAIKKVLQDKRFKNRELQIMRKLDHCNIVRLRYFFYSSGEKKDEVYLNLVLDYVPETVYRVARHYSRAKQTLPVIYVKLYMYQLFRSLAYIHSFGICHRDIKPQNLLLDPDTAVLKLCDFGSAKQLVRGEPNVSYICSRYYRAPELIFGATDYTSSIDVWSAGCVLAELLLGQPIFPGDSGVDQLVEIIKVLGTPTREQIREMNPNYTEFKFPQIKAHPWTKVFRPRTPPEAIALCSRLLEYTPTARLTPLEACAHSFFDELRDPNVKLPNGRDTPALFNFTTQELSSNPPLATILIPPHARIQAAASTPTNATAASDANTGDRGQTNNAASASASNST

Structure (SMILES) | Ki (GSK-3β (AA 1-420)) [nM] | Ki (Aurora-2) [nM] | Ki (CDK-2/Cyclin A) [nM]
COc1cccc(C2=NNC(=O)C2=NNc2ccc(-c3ccc(F)cc3)cc2)c1 [Compound 84] | 100 to 1000 | – | –
COc1ccc(C2=NNC(=O)C2=NNc2cccc(Oc3ccccc3)c2)cc1 [Compound 88] | < 100 | – | –
CCN(CC)c1ccc(NN=C2C(=O)NN=C2c2cc(OC)c(OC)c(OC)c2)cc1 [Compound 38] | 100 to 1000 | – | –
COc1ccc(C2=NNC(=O)/C2=N\Nc2ccc(Cl)cc2)cc1 [Compound 43] | < 100 | 100 to 1000 | –
COc1ccc(C2=NNC(=O)C2=NNc2ccc(Oc3ccccc3)cc2)cc1 [Compound 85] | < 100 | – | –
COc1cccc(C2=NNC(=O)/C2=N\Nc2ccc(N3CCOCC3)cc2)c1 [Compound 62] | < 100 | 100 to 1000 | –
COc1ccc(C2=NNC(=O)C2=NNc2ccc3c(c2)OCO3)cc1 [Compound 213] | < 100 | – | –
COc1ccc(C2=NNC(=O)C2=NNc2ccc(OC)c(-c3ccccc3)c2)cc1 [Compound 220] | < 100 | – | –
COc1cccc(N/N=C2\C(=O)NN=C2c2cccc(OC)c2)c1 [Compound 74] | < 100 | – | –
COc1cc(OC)c(NN=C2C(=O)NN=C2c2ccc(OC)c(OC)c2)c(OC)c1 [Compound 112, 5-(3,4-Dimethoxy-phenyl)-4-[(2,4,6-trimethoxy-phenyl)-hydrazono]-2,4-dihydro-pyrazol-3-one] | 100 to 1000 | – | –
CCN(CCO)c1ccc(NN=C2C(=O)NN=C2c2cc(OC)c(OC)c(OC)c2)cc1 [Compound 223] | < 100 | < 100 | –
COc1ccc(C2=NNC(=O)C2=NNc2ccc(OC)c(-c3cccc(N)c3)c2)cc1OC [Compound 105, 4-[(3′-Amino-6-methoxy-biphenyl-3-yl)-hydrazono]-5-(3,4-dimethoxy-phenyl)-2,4-dihydro-pyrazol-3-one] | < 100 | – | –
COc1ccc(C2=NNC(=O)C2=NNc2cccc(OC)c2)cc1 [Compound 72] | < 100 | – | –
COc1cccc(C2=NNC(=O)C2=NNc2ccc([N+](=O)[O-])cc2)c1 [Compound 78] | < 100 | – | –
COc1cccc(C2=NNC(=O)C2=NNc2ccc(C(F)(F)F)cc2)c1 [Compound 65] | < 100 | – | –
COc1ccc(C2=NNC(=O)C2=NNc2ccc(-c3ccccc3)cc2)cc1OC [Compound 80] | < 100 | – | –
COc1cc(C2=NNC(=O)C2=CNc2cc(C)[nH]n2)cc(OC)c1OC [Compound 227] | 100 to 1000 | – | –
CC1=NNC(=O)/C1=N\Nc1ccccc1Cl [Compound 8] | 100 to 1000 | – | –
COc1ccc(Nc2ccc(NC=C3C(=O)NN=C3c3ccc(OC)cc3)cc2)cc1 [Compound 224] | 100 to 1000 | – | –
COc1ccc(C2=NNC(=O)C2=CNc2cccc(OCc3ccccc3)c2)cc1OC [Compound 92, 4-[(3-Benzyloxy-phenylamino)-methylene]-5-(3,4-dimethoxy-phenyl)-2,4-dihydro-pyrazol-3-one] | 100 to 1000 | – | 1000 to 20000
COc1ccc(C2=NNC(=O)C2=NNc2cccc(-c3ccccc3)c2)cc1 [Compound 203] | < 100 | – | –
COc1ccc(C2=NNC(=O)/C2=N\Nc2ccc(N3CCOCC3)cc2)cc1OC [Compound 61] | < 100 | < 100 | –
